Series [1] concerns tumor cell. On the set-up: method as in PMID 19229106, PMID 29348817. To be noted: in culture; read-out: IC50 of tumor cell killing; cited from earlier work.
Series [2] deals with Caco-2 intestinal cells. Kind of series: Bidirectional Caco2 cell monolayer permeability. To be noted: Caco-2. The method, then: Caco-2 and HEK293 cells were obtained from the American Type Culture Collection (ATCC, Manassas, VA) and grown in culture according to the supplier’s specifications. In some experiments, HEK293 cells were stably transfected with hERG cDNA, and polyclonal cultures were maintained in the presence of 250 µg/ml geneticin (G418).
Bidirectional Caco2 cell monolayer permeability. Caco2 cells (2x10^4/well) were seeded onto apical chambers of a 24-multiwell insert plate and incubated at 37°C in 5% CO2. After 21 d, the transepithelial electrical resistance (TEER) in ohms was read for each insert well as a quality control for monolayer integrity (>900 ohms or 300 ohms cm^2). The cell monolayers were incubated with 400 µL transport buffer on the apical (A) and 1.2 mL on the basolateral (B) sides for 30 min. After preincubation, dosing solution was added to the apical (400 µL, A-to-B, donor) or basolateral sides (1.2 mL, B-to-A, donor) or receiving buffer to the apical (400 µL, B-to-A, receiver) or basolateral sides (1.2 mL, A-to-B, receiver) for 90 min at 37°C in 5% CO2. […] Papp’A>B (nm/s) was calculated with Equation 1.
Papp Efflux Ratio (ER) was calculated with Equation 2.
ER=Papp,B>APapp,A>BEquation 2: […]
Propranolol (high permeability marker, non-P-gp substate) and digoxin (P-gp substrate) were used as controls.
A general note: Caco-2 cells form a polarised layer with tight junctions and transporters.

In series [3] the target is Nav1.5 (Homo sapiens, UniProt Q14524). Kind of series: Ion channel screening. The settings on record: 10 µM, pulse 26. Format: cell-based.
Chain of Nav1.5 (Q14524 whole entry): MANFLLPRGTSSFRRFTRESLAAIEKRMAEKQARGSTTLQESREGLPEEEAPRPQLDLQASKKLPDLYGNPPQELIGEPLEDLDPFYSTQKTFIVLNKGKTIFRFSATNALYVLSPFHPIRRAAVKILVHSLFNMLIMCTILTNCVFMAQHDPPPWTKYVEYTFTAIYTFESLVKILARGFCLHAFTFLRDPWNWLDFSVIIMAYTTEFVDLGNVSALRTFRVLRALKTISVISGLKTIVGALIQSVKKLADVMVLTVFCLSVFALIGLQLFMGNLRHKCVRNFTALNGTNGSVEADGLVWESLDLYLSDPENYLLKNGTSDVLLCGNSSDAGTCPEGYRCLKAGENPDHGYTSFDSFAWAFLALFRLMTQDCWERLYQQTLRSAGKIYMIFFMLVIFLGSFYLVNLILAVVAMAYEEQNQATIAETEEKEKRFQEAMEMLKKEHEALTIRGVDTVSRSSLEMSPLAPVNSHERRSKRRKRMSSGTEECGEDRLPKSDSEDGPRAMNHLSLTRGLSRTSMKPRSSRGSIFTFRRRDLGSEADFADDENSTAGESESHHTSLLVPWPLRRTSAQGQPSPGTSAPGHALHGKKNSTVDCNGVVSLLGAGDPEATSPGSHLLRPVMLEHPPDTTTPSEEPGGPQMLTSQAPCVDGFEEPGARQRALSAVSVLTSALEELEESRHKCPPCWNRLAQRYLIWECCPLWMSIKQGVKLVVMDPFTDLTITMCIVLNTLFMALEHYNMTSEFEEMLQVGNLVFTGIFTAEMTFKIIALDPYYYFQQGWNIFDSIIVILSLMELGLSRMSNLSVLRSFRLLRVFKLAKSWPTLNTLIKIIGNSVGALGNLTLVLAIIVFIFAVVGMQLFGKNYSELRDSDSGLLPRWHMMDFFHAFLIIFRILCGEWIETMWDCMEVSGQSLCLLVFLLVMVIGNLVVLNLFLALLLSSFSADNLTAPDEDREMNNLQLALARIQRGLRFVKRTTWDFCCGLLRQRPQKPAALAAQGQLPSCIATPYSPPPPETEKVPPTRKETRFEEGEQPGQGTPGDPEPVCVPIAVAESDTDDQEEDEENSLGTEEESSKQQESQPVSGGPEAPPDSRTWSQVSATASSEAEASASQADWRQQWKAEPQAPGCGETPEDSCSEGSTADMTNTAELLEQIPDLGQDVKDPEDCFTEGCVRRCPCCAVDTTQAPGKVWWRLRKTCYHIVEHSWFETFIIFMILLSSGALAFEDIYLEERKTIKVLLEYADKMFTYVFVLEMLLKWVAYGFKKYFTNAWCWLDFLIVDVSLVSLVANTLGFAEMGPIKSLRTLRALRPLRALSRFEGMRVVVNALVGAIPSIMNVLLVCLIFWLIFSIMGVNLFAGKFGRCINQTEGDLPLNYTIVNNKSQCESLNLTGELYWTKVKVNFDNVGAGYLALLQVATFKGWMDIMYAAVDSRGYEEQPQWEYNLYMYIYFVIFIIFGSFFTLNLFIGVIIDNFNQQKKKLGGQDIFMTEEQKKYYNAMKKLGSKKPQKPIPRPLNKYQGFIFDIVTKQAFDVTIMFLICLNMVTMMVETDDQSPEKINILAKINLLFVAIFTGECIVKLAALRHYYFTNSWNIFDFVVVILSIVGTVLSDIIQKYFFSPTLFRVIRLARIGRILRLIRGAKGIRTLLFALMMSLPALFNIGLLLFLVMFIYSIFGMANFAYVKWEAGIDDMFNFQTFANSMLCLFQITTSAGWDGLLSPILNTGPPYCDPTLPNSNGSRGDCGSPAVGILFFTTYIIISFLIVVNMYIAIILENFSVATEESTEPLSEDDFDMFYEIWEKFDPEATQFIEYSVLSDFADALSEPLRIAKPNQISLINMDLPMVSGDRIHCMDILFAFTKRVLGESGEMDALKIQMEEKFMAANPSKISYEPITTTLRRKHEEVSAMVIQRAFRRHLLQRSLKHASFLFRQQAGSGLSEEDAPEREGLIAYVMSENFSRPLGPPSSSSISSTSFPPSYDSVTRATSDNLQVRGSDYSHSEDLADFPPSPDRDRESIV
Excerpt: (§1) Ion channel screening. […] The parameters measured were the maximum inward current evoked on stepping to -20 mV from the 1st and 26th pulse. Human Kv4.3/KChIP2 currents were evoked from a holding potential of -80 mV by a series of four 500 msec pulses to 0 mV using a 1000 msec interval between pulses. The parameter measured was the amplitude of the outward current 50 msec after the onset of the 4th voltage step to 0 mV. […] Human Kv1.5 currents were evoked by a single pulse from a holding potential of -80 mV to a potential of 0 mV for 4 sec before returning to -80 mV. The parameters measured were the maximum amplitude of outward currents evoked at the beginning of the voltage pulse and at the end of the voltage step from -80 mV to 0 mV. Human KCNQ1/minK currents were evoked by a single pulse delivered from a holding potential of -80 mV to +60 mV for 4 sec before returning to -80 mV. The parameter measured was the maximum outward current evoked on stepping to +60 mV from the holding potential of -80 mV. hERG currents were evoked by a three-pulse protocol where voltage was first stepped to +40 mV for two sec from a holding potential of –80 mV to inactivate hERG channels. […] The parameter measured was the maximum inward current evoked upon stepping to -110 mV from the holding potential of -30 mV. […]
Series [4] addresses hERG (Homo sapiens, UniProt Q12809).
Description: Patch clamp recording. […] For electrophysiology recording, a micropipette was pulled from borosilicate glass with the pipette tip resistance between 3 ~ 5 MΩ. For each experiment, polyclonal HEK293 cells stably transfected with hERG cDNA and maintained in 250 µg/ml Geneticin (G418) were plated on 35 mm dishes on the microscope stage and a commercial patch clamp amplifier was used for the whole cell recordings. The tail currents were evoked at 22°C once every 30 sec by a 3 sec-50 mV repolarizing pulse following a 2 sec +50 mV depolarizing pulse with a hold voltage of -80 mV. A 50 msec depolarized pulse to -50 mV at the beginning of the voltage protocol served as a baseline for calculating the amplitude of the peak tail current. […] The cells were kept in the test solution until the peak tail current was stable (<5% change) for ~5 sweeps or for a maximum of 6 min, whichever came first. Peak tail amplitudes were plotted as a function of the sweep number. […] The % inhibition of the test article was calculated from the following equation:
Series [5] deals with T1, HCN4 (Homo sapiens, UniProt Q9Y3Q4).
T1 sequence (Q9Y3Q4 1-1203): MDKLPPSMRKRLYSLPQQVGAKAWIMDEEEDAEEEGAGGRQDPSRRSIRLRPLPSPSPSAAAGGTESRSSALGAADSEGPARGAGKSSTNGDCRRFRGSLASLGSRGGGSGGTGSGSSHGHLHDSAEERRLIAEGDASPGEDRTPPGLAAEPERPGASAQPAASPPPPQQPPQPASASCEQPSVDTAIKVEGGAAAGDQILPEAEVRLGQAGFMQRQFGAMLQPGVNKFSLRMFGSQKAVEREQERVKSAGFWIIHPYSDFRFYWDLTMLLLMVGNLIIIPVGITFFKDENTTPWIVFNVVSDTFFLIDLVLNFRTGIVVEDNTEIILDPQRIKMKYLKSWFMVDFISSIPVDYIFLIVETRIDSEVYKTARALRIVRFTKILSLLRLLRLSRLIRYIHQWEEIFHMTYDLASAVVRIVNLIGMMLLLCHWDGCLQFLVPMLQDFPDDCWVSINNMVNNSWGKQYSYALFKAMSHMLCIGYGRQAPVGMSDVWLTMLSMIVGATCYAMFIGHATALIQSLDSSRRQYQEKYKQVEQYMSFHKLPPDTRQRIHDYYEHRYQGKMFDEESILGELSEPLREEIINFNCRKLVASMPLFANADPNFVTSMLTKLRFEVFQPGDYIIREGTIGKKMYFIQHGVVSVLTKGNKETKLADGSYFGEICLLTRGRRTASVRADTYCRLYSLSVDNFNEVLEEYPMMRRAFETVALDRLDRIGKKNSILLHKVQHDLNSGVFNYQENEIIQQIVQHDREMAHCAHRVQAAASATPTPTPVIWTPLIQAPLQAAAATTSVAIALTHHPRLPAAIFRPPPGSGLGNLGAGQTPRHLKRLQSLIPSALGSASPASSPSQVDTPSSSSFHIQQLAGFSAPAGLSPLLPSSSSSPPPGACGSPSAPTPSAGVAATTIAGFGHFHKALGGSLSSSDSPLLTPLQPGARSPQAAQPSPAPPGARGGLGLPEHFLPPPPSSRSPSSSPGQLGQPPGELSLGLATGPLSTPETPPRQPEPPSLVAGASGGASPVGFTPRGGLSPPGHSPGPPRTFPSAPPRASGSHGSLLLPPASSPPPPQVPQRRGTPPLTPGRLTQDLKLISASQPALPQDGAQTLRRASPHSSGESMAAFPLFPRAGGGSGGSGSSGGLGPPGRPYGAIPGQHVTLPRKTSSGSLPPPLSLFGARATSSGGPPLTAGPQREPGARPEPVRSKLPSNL
Kind of series: Ion channel screening. To be noted: 10 µM. Format: cell-based.
Excerpt: as §1

SMILES strings stand for the structures. Read-outs that look alike come from different tables or passages of the source.

Chain of hERG (Q12809 whole entry): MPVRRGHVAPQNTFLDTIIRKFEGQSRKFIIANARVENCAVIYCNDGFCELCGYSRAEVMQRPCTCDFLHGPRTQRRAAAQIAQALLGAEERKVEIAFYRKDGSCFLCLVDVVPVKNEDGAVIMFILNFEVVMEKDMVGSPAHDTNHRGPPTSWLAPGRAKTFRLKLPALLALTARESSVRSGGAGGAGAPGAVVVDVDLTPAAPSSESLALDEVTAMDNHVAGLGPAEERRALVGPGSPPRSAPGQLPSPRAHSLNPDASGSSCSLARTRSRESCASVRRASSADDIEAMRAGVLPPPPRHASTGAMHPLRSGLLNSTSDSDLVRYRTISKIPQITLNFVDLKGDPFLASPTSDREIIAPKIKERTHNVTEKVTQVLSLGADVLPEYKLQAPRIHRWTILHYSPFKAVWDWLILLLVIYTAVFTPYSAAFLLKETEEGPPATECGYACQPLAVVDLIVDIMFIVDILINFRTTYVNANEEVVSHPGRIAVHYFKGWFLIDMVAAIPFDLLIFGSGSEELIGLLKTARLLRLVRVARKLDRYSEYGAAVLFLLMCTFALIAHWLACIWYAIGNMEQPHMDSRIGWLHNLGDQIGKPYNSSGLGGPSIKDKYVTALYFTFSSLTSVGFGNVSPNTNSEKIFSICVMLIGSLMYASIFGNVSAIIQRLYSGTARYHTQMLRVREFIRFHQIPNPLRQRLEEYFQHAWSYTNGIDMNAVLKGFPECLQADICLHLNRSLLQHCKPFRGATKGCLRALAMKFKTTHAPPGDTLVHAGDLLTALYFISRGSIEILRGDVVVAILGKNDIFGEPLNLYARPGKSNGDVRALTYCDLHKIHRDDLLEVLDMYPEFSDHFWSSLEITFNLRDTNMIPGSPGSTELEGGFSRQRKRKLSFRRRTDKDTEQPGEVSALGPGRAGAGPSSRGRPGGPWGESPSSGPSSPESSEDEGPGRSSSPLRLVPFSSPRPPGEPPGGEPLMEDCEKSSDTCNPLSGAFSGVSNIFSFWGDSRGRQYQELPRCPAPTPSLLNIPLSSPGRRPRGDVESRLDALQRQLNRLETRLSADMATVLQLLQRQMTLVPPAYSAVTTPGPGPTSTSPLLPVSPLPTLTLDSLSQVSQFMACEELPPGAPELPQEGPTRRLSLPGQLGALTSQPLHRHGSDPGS

As usually defined, the IC50 is the concentration that gives 50% inhibition. For the compound `COC1C=CC=C(C)C(=O)NC2=CC(=O)C(NCCCCCC[P+](c3ccccc3)(c3ccccc3)c3ccccc3)=C(CC(C)CC(OC)C(O)C(C)C=C(C)C1OC(N)=O)C2=O.F[P-](F)(F)(F)(F)F` (stereo not shown) [Gamitrinib], the 50% inhibitory concentration (IC50) in series [1] is 1 to 4 µM. Further, in series [2], the “Papp Efflux Ratio (ER)” value was 5.77; the “Papp, A>B” value amounted to 0.19 ×10⁻⁶ cm/s; the “Papp, B>A” value came out at 1.094 ×10⁻⁶ cm/s; the “Pexact Efflux Ratio” value was found to be 5.54. In series [2], the “Pexact,A>B” value was determined as 0.197 ×10⁻⁶ cm/s and the “Pexact,B>A” value turned out to be 1.092 ×10⁻⁶ cm/s. The “inhibition of Nav1.5 currents” value in series [3] was determined as 22.3 ± 5.3%. The same compound displayed a 50% inhibitory concentration (IC50) in series [4] of 3.5 µM. Further, in series [4] (0.5 µM), the “inhibition of hERG currents” value is recorded as −0.68 ± 3.95%. For the same compound, the “inhibition of hERG currents” value in series [4] (5 µM) is listed as 65.95 ± 6.78%. In addition, in series [4] (ratio), the “hERG IC50 over IC50 of inhibition of tumor growth in NCI 60-cell line screen” value is “up to 20 fold”. Moreover, the “inhibition of HCN4 currents” value in series [5] is −0.2 ± 3.7%.

The record behind these values is publication PMC8820820, “Feasibility and safety of targeting mitochondria for cancer therapy – preclinical characterization of gamitrinib, a first-in-class, mitochondriaL-targeted small molecule Hsp90 inhibitor” (Cancer Biology & Therapy, 2022).
